Measurements as given in patent US20230129359A1, “MUSCARINIC RECEPTOR 4 ANTAGONISTS AND METHODS OF USE” (Neurocrine Biosciences, Inc., priority 2020, published 2023).
Blank lines part the entries; values can stand above or below the compound they belong to.

Biological target: T1, human M4 receptor (Homo sapiens, UniProt P08173)
T1 construct: expressed in transfected cells; host or cells: CHO cells
T1 sequence (P08173 1-479): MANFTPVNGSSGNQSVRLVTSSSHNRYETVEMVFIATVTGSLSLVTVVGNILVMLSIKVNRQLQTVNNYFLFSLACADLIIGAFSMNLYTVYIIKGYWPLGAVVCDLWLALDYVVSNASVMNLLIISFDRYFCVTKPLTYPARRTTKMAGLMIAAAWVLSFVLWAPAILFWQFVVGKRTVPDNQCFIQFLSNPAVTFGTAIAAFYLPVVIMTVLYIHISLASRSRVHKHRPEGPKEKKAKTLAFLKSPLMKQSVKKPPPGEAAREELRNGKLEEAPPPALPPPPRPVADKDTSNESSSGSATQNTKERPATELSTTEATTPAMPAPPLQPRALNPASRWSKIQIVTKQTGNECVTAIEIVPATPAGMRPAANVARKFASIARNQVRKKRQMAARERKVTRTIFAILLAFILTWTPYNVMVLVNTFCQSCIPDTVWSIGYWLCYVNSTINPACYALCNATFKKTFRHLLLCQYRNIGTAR
Test: Radioligand ([3H]N-methylscopolamine) binding assay, membranes from CHO cells expressing human M4 receptor
Details: Ki against human M4 receptor; membranes from CHO cells; tritiated N-methylscopolamine 1.5 nM; read-out: K
In short: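 Ki values derive from displacement of tritiated N-methylscopolamine (1.5 nM) from human M4 receptor in CHO membranes. Membranes, radioligand and twelve-point compound series were incubated together at 37 °C for 90 minutes in pH 7.4 HEPES/NaCl/MgCl2/EDTA buffer. Rapid vacuum filtration over polyethylenimine-pretreated filters was followed by radioactivity counting.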

Ki: 10 to 100 nM
SMILES: CC(C)c1ccc(CN2CC3(CC(NC(=O)N4[C@H](C)CN(c5ncc(C(F)(F)F)cn5)C[C@@H]4C)C3)C2)cc1 [Compound 316, (2R,6S)-2,6-dimethyl-N-(2-{[4-(propan-2-yl)phenyl]methyl}-2-azaspiro[3.3]heptan-6-yl)-4-[5-(trifluroomethyl)pyrimidin-2-yl]piperazine-1-carboxamide]

Ki: 100 to 1000 nM
SMILES: C[C@@H]1CN(c2ncc(C(F)(F)F)cn2)C[C@H](C)N1C(=O)NC1CC2(C1)CN(Cc1ccncc1)C2 [Compound 317, (2R,6S)-2,6-dimethyl-N-[2-(pyridin-4-ylmethyl)-2-azaspiro[3.3]heptan-6-yl]-4-[5-(trifluoromethyl)pyrimidin-2-yl]piperazine-1-carboxamide]

Ki: < 10 nM
SMILES: C[C@@H]1CN(c2ncc(C(F)(F)F)cn2)C[C@H](C)N1C(=O)NC1CC2(C1)CN(Cc1ccc(O)cc1)C2 [Compound 319, (2R,6S)-N-{2-[(4-hydroxyphenyl)methyl]-2-azaspiro[3.3]heptan-6-yl}-2,6-dimethyl-4-[5-(trifluoromethyl)pyrimidin-2-yl]piperazine-1-carboxamide]

Ki: 100 to 1000 nM
SMILES: CC(=O)Nc1ccc(CN2CC3(CC(NC(=O)N4[C@H](C)CN(c5ncc(C(F)(F)F)cn5)C[C@@H]4C)C3)C2)cc1 [Compound 321, (2R,6S)-N-{2-[(4-acetamidophenyl)methyl]-2-azaspiro[3.3]heptan-6-yl}-2,6-dimethyl-4-[5-(trifluoromethyl)pyrimidin-2-yl]piperazine-1-carboxamide]

Ki: < 10 nM
SMILES: C[C@@H]1CN(c2ncc(C(F)(F)F)cn2)C[C@H](C)N1C(=O)NC1CC2(C1)CN(Cc1ccc(Cl)cc1)C2 [Compound 325, (2R,6S)-N-{2-[(4-chlorophenyl)methyl]-2-azaspiro[3.3]heptan-6-yl}-2,6-dimethyl-4-[5-(trifluoromethyl)pyrimidin-2-yl]piperazine-1-carboxamide]

Ki: 10 to 100 nM
SMILES: C[C@@H]1CN(c2ncc(C(F)(F)F)cn2)C[C@@H](C)N1C(=O)NC1CC2(C1)CN(Cc1ccc(F)cc1)C2 [Compound 328, (2R,6R)-N-{2-[(4-fluorophenyl)methyl]-2-azaspiro[3.3]heptan-6-yl}-2,6-dimethyl-4-[5-(trifluoromethyl)pyrimidin-2-yl]piperazine-1-carboxamide]

Ki: < 10 nM
SMILES: CC(c1ccccc1)N1CC2(CC(NC(=O)N3[C@H](C)CN(c4ncc(C(F)(F)F)cn4)C[C@@H]3C)C2)C1 (stereo partly drawn) [Compound 334, (2R,6S)-2,6-dimethyl-N-[2-(1-phenylethyl)-2-azaspiro[3.3]heptan-6-yl]-4-[5-(trifluoromethyl)pyrimidin-2-yl]piperazine-1-carboxamide]

Ki: 10 to 100 nM
SMILES: C[C@@H]1CN(c2ncc(C(F)(F)F)cn2)C[C@H](C)N1C(=O)NC1CC2(C1)CN(Cc1ccccc1O)C2 [Compound 337, (2R,6S)-N-{2-[(2-hydroxyphenyl)methyl]-2-azaspiro[3.3]heptan-6-yl}-2,6-dimethyl-4-[5-(trifluoromethyl)pyrimidin-2-yl]piperazine-1-carboxamide]

Ki: < 10 nM
SMILES: Cc1ccsc1CN1CC2(CC(NC(=O)N3[C@H](C)CN(c4ncc(C(F)(F)F)cn4)C[C@@H]3C)C2)C1 [Compound 338, (2R,6S)-2,6-dimethyl-N-{2-[(3-methylthiophen-2-yl)methyl]-2-azaspiro[3.3]heptan-6-yl}-4-[5-(trifluoromethyl)pyrimidin-2-yl]piperazine-1-carboxamide]

Ki: < 10 nM
SMILES: Cc1ccc(CN2CC3(CC(NC(=O)N4[C@H](C)CN(c5ncc(C(F)(F)F)cn5)C[C@@H]4C)C3)C2)s1 [Compound 339, (2R,6S)-2,6-dimethyl-N-{2-[(5-methylthiophen-2-yl)methyl]-2-azaspiro[3.3]heptan-6-yl}-4-[5-(trifluoromethyl)pyrimidin-2-yl]piperazine-1-carboxamide]

Ki: < 10 nM
SMILES: C[C@@H]1CN(c2ncc(C(F)(F)F)cn2)C[C@H](C)N1C(=O)NC1CC2(C1)CN(Cc1ccc(Cl)s1)C2 [Compound 340, (2R,6S)-N-{2-[(5-chlorothiophen-2-yl)methyl]-2-azaspiro[3.3]heptan-6-yl}-2,6-dimethyl-4-[5-(trifluoromethyl)pyrimidin-2-yl]piperazine-1-carboxamide]

The next lines start with the compound.

SMILES: C[C@@H]1CN(c2ncc(C(F)(F)F)cn2)C[C@H](C)N1C(=O)NC1CC2(C1)CN(Cc1ccc([N+](=O)[O-])cc1)C2 [Compound 314, (2R,6S)-2,6-dimethyl-N-{2-[(4-nitrophenyl)methyl]-2-azaspiro[3.3]heptan-6-yl}-4-[5-(trifluoromethyl)pyrimidin-2-yl]piperazine-1-carboxamide]
Ki: 10 to 100 nM

SMILES: COC(=O)c1ccc(CN2CC3(CC(NC(=O)N4[C@H](C)CN(c5ncc(C(F)(F)F)cn5)C[C@@H]4C)C3)C2)cc1 [Compound 320, methyl 4-[(6-{[(2R,6S)-2,6-dimethyl-4-[5-(trifluoromethyl)pyrimidin-2-yl]piperazine-1-carbonyl]amino}-2-azaspiro[3.3]heptan-2-yl)methyl]benzoate]
Ki: 100 to 1000 nM

SMILES: C[C@@H]1CN(c2ncc(C(F)(F)F)cn2)C[C@H](C)N1C(=O)NC1CC2(C1)CN(Cc1ccc(OC(F)F)cc1)C2 [Compound 322, (2R,6S)-N-(2-{[4-(difluoromethoxy)phenyl]meth-yl}-2-azaspiro[3.3]heptan-6-yl)-2,6-dimethyl-4-[5-(trifluoromethyl)pyrimidin-2-yl]piperazine-1-carboxamide]
Ki: 10 to 100 nM

SMILES: C[C@@H]1CN(c2ncc(C(F)(F)F)cn2)C[C@H](C)N1C(=O)NC1CC2(C1)CN(Cc1ccc(C(F)(F)F)cc1)C2 [Compound 323, (2R,6S)-2,6-dimethyl-N-(2-{[4-(trifluoromethyl)phen-yl]methyl}-2-aza-spiro[3.3]heptan-6-yl)-4-[5-(trifluoromethyl)pyrimidin-2-yl]piperazine-1-carboxamide]
Ki: 10 to 100 nM

SMILES: C[C@@H]1CN(c2ncc(C(F)(F)F)cn2)C[C@H](C)N1C(=O)NC1CC2(C1)CN(CC13CC4CC(CC(C4)C1)C3)C2 [Compound 327, (2R,6S)-N-[2-(adamantan-1-ylmethyl)-2-azaspiro[3.3]heptan-6-yl]-2,6-dimethyl-4-[5-(trifluoromethyl)pyrimidin-2-yl]piperazine-1-carboxamide]
Ki: 10 to 100 nM

SMILES: C[C@@H]1CN(c2ncc(C#N)cn2)C[C@H](C)N1C(=O)NC1CC2(C1)CN(Cc1ccc(F)cc1)C2 [Compound 330, (2R,6S)-4-(5-cyanopyrimidin-2-yl)-N-{2-[(4-fluorophenyl)methyl]-2-azaspiro[3.3]heptan-6-yl}-2,6-dimethylpiperazine-1-carboxamide]
Ki: 100 to 1000 nM

SMILES: C[C@@H]1CN(c2ncc(C(F)(F)F)cn2)C[C@H](C)N1C(=O)NC1CC2(C1)CN(CC1CC(F)(F)C1)C2 [Compound 333, (2R,6S)-N-{2-[(3,3-difluorocyclobutyl)methyl]-2-azaspiro[3.3]heptan-6-yl}-2,6-dimethyl-4-[5-(trifluoromethyl)pyrimidin-2-yl]piperazine-1-carboxamide]
Ki: 100 to 1000 nM

SMILES: C[C@@H]1CN(c2ncc(C(F)(F)F)cn2)C[C@H](C)N1C(=O)OC1(C(F)F)CC2(CN(Cc3ccccc3)C2)C1 [Compound 341, 2-benzyl-6-(difluoromethyl)-2-azaspiro[3.3]heptan-6-yl (2R,6S)-2,6-dimethyl-4-[5-(trifluoromethyl)pyrimidin-2-yl]piperazine-1-carboxylate]
Ki: 10 to 100 nM

SMILES: C[C@@H]1CN(c2cnc(C(F)(F)F)cn2)C[C@H](C)N1C(=O)OC1(C(F)F)CC2(CN(Cc3ccccc3)C2)C1 [Compound 342, 2-benzyl-6-(difluoromethyl)-2-azaspiro[3.3]heptan-6-yl (2R,6S)-2,6-dimethyl-4-[5-(trifluoromethyl)pyrazin-2-yl]piperazine-1-carboxylate]
Ki: 100 to 1000 nM

SMILES: C[C@@H]1CN(c2ncc(C(F)(F)F)cn2)C[C@@H](C)N1C(=O)OC1(C(F)F)CC2(CN(Cc3ccccc3)C2)C1 [Compound 344, 2-benzyl-6-(difluoromethyl)-2-azaspiro[3.3]heptan-6-yl (2R,6R)-2,6-dimethyl-4-[5-(trifluoromethyl)pyrimidin-2-yl]piperazine-1-carboxylate]
Ki: 10 to 100 nM

SMILES: C[C@@H]1CN(c2ncc(C(F)(F)F)cn2)[C@@H](C)CN1C(=O)OC1(C(F)F)CC2(CN(Cc3ccccc3)C2)C1 [Compound 346, 2-benzyl-6-(difluoromethyl)-2-azaspiro[3.3]heptan-6-yl (2R,5S)-2,5-dimethyl-4-[5-(trifluoromethyl)pyrimidin-2-yl]piperazine-1-carboxylate]
Ki: 10 to 100 nM

SMILES: C[C@@H]1CN(c2cnc(C(F)(F)F)cn2)[C@@H](C)CN1C(=O)OC1(C(F)F)CC2(CN(Cc3ccccc3)C2)C1 [Compound 347, 2-benzyl-6-(difluoromethyl)-2-azaspiro[3.3]heptan-6-yl (2R,5S)-2,5-dimethyl-4-[5-(trifluoromethyl)pyrazin-2-yl]piperazine-1-carboxylate]
Ki: 100 to 1000 nM

SMILES: C[C@@H]1CN(c2ncc(C(F)(F)F)cn2)CCN1C(=O)OC1(C(F)F)CC2(CN(Cc3ccccc3)C2)C1 [Compound 349, 2-benzyl-6-(difluoromethyl)-2-azaspiro[3.3]heptan-6-yl (2R)-2-methyl-4-[5-(trifluoromethyl)pyrimidin-2-yl]piperazine-1-carboxylate]
Ki: 10 to 100 nM
